Results reported in patent US6797721B2, “Phorboxazole derivatives for treating cancer” (Parker Hughes Institute, priority 1999, dated 2004).

Experiments:
U373 glioblastoma cells = assay: In vitro adhesion assay to ECM proteins, U373; type: cell-based, human; settings: laminin-, fibronectin-, and collagen-coated plates, 0.1 μM to 1 μM for 24 hours
Description: (§1) Human brain tumor cell lines U-373 MG and breast cancer cell lines BT-20 and MDA-MB-231 were obtained from American Type Culture Collection (ATCC, Rockville, Md.) and maintained in liquid culture using DMEM supplemented with 10% fetal bovine serum and antibiotics. Fibroblast conditioned medium was used as a source of chemoattractant in vitro invasion assays. Conditioned medium was prepared as described in the literature (Albini et.al., 1987, Cancer Res., 47:3239-3245).
(§2) In vitro adhesion assays were performed to (a) study the baseline adhesive properties of various breast cancer and glioblastoma cell lines and (b) evaluate the effects of phorboxazole A derivatives on the adhesive properties of breast cancer and glioblastoma cells. The plates for the adhesion assays were precoated with the extracellular matrix proteins laminin, fibronectin, or type IV collagen (each at a final concentration of 1 μg/ml in PBS) overnight at 4° C. and dried. On the day of the experiment, the wells were rehydrated and blocked with 10% bovine serum albumin in PBS for 1 hour at room temperature and used for the adhesion assays, as described below.
(§3) The effects of synthetic phorboxazole A and specific derivatives on adhesion of breast cancer and glioblastoma cells was studied. Exponentially growing cells in DMEM were incubated with phorboxazole compounds or genistein as a control at concentrations ranging from 0.1 μM to 1 μM for 24 hours in a humidified 5% CO2 atmosphere. DMSO (0.1%) was included as a vehicle control. After treatment, cells were detached from the flasks with 0.05% trypsin (Life Technologies) resuspended in DMEM, incubated at 37° C. for 2 hours to allow them to recover from the trypsinization stress and examined for their ability to adhere to plates precoated with ECM proteins.
(§4) In adhesion assays, cells were centrifuged, washed twice with serum-free DMEM, counted and resuspended in serum-free DMEM to a final concentration of 2.5×10^5 cells/ml. […] The adherent fraction was quantitated using MTT (3-[4,5-dimethylthiazol-2-yl]-2,5-diphenyltetrazolium bromide) assays. […] The absorbance of each well was measured in a microplate reader (Labsystems) at 540 nm and a reference wavelength of 690 nm.
(§5) To translate the OD540 values into the number of cells in each well, the OD540 values were compared to those on standard OD540-versus-cell number curves generated for each cell line. The adherent fractions of cells treated with phorboxazole A derivatives were compared to those of DMSO-treated control cells and the percent inhibition of adhesion was determined using the formula: [formula]
(§6) Each treatment condition was evaluated in duplicate in 3 independent experiments. The IC50 values were calculated by non-linear regression analysis. […]

[1] = tested on: BT-20 human breast cancer cells; assay: MTT cytotoxicity assay, BT-20; type: cell-based; settings: BT-20 (breast cancer), 24-36 hours, read-out: IC50 [MTT]
Description: The cytotoxicity assay of synthetic Phorboxazole A and various derivative compounds against human tumor cells was performed using the MTT (3-[4,5-dimethylthiazol-2-yl]-2,5-diphenyl tetrazolium bromide) assay (Boehringer Mannheim Corp., Indianapolis, Ind.). Briefly, exponentially growing brain tumor cells were seeded into a 96-well plate at a density of 2.5×10^4 cells/well and incubated for 36 hours at 37° C. prior to drug exposure. On the day of treatment, culture medium was carefully aspirated from the wells and replaced with fresh medium containing the various phorboxazole A derivative compounds as well as the tyrosine kinase inhibitory isoflavone genistein (GEN) at concentrations ranging from 0.1 to 250 μM. Triplicate wells were used for each treatment.
Human glioblastoma cells U373 (brain cancer), human B-lineage acute lymphoblastic leukemia cells NALM-6, and human breast cancer cells BT-20 were obtained from American Type Culture Collection (Rockville, Md.) and maintained as a continuous cell line in Dulbecco's modified Eagles's medium supplemented with 10% fetal bovine serum and antibiotics.
The cells were incubated with the various compounds for 24-36 hours at 37° C. in a humidified 5% CO2 atmosphere. To each well, 10 μl of MTT (0.5 mg/ml final concentration) was added and the plates were incubated at 37° C. for 4 hours to allow MTT to form formazan crystals by reacting with metabolically active cells. The fonnazan crystals were solubilized overnight at 37° C. in a solution containing 10% SDS in 0.01 M HCl. The absorbance of each well was measured in a microplate reader (Labsystems) at 540 nm and a reference wavelength of 690 nm. To translate the OD540 values into the number of live cells in each well, the OD540 values were compared to those on standard OD540-versus-cell number curves generated for each cell line. The percent survival was calculated using the formula: [formula]
The IC50 values were calculated by non-linear regression analysis.

[2] = tested on: NALM-6 B-lineage ALL cells; assay: Clonogenic assay, NALM-6; type: cell-based, human; settings: 7 days
Description: (§7) The growth-inhibiting activity of the synthetic Phorboxazole A and the synthesized derivatives was tested in clonogenic assays. Cancer cells were treated with 1 nM, 10 nM, and 100 nM doses of synthetic Phorboxazole A or derivatives of phorboxazole A. Treated cells included U373 human glioblastoma cells, NALM-6, human B-lineage acute lymphoblastic leukemia cells, and BT-20 human breast cancer cells. The cancer cells were resuspended in clonogenic medium consisting of alpha-MEM supplemented with 0.9% methylcellulose, 30% fetal bovine serum, and 50 μM 2-mercaptoethanol. Cells were plated in duplicate Petri dishes at 100,000 cells/mL/dish and cultured in a humidified 5% CO2 incubator for 7 days. Cancer cell colonies were enumerated on a grid using an inverted phase microscope of high optical resolution. Results were expressed as % inhibition of clonogenic cells at a particular concentration of the test agent using the formula:
(§8) % Inhibition=(1−Mean # of colonies [Test]/Mean # of colonies [Control]×100.

[3] = tested on: BT-20 human breast cancer cells; assay: Clonogenic assay, BT-20; type: cell-based; settings: 7 days
Description: as §7, §8

[4] = tested on: BT-20 breast cancer cells; assay: In vitro adhesion assay to ECM proteins, BT-20; type: cell-based, human; settings: laminin-, fibronectin-, and collagen-coated plates, 0.1 μM to 1 μM for 24 hours
Description: as §1, §2, §3, §4, §5, §6

[5] = Homo sapiens, 168 h, 1 nM, read-out: Inhibition of clonogenic growth
[6] = Homo sapiens, 168 h, 10 nM, read-out: Inhibition of clonogenic growth
[7] = Homo sapiens, 168 h, 100 nM, read-out: Inhibition of clonogenic growth

## C=C1C[C@@H]2C[C@@H]3C[C@@H](O)C[C@@H](O3)c3coc(n3)/C=C/C[C@H]3O[C@@H](/C(C)=C/c4coc(C[C@]5(O)C[C@H](OC)C[C@H]([C@H](O)/C=C(C)/C=C/[C@@H](C/C=C/Br)OC)O5)n4)[C@H](C)[C@@H](OC(=O)/C=C\C[C@@H](C1)O2)[C@H]3C [Compound 1, Phorboxazole A]
U373 glioblastoma cells
  Inhibition of cell adhesion: active
[1]
  IC50: 3.4 nM
[2]; 1 nM
  Mean Number Colonies/10^4 cells: 270
[2]; 10 nM
  Mean Number Colonies/10^4 cells: 0
[2]; 100 nM
  Mean Number Colonies/10^4 cells: 0
[2]; [5]
  inhibition at 0.001 µM: 86.8%
[2]; [6]
  inhibition at 0.01 µM: > 99.9%
[2]; [7]
  inhibition at 0.1 µM: > 99.9%
[3]; 1 nM
  Mean Number Colonies/10^4 cells: 1070
[3]; 10 nM
  Mean Number Colonies/10^4 cells: 0
[3]; 100 nM
  Mean Number Colonies/10^4 cells: 0
[3]; [5]
  inhibition at 0.001 µM: 29.8%
[3]; [6]
  inhibition at 0.01 µM: > 99.9%
[3]; [7]
  inhibition at 0.1 µM: > 99.9%
[4]
  Inhibition of cell adhesion: active
